Measurements reported in patent US20220062379A1, “METHODS AND COMPOSITIONS FOR MODULATING IMMUNE DYSREGULATION” (The General Hospital Corporation, priority 2019, published 2022).

Columns and labels:
[1] = system: proinflammatory cytokine release; experiment: Whole blood cytokine release assay, cytokines not itemised; type: cell-based, human; conditions: for Effect on (proinflammatory) cytokine release in whole blood assay (in words): in response to LPS stimulation
Protocol: (§1) Fresh, anonymized, heparinized, human blood from male donors was diluted 1:3 with RPMI containing penicillin and streptomycin. 150 μl diluted blood was added to each well of a 96 well plate then acclimatized to 37° C. and 5% CO2 for 1 hour. Inhibitors were prepared as described below then added to the diluted blood in 25 μl volume. After a further hour at 37° C. with 5% CO2, diluted blood was stimulated with LPS diluted in 25 μl RPMI containing penicillin and streptomycin to a final concentration of 1.5 ng/ml. After 18 h at 37° C. and 5% CO2, diluted blood was centrifuged at 500×g for 5 min and supernatant collected and stored at −20° C. until ELISAs were performed. Data are presented as mean inhibition relative to vehicle control ±95% confidence intervals, n=3-4 independent experiments.
(§2) Inhibitors and vehicles used for resuspension were: Compound 26, EMD Millipore, Cat #5.31237.0001, resuspended in DMSO; PF 06650833, R & D Systems, Cat #6373, resuspended in DMSO; OEPC (oleyloxyethyl phosphorylcholine), Santa Cruz Biotechnology, item # sc-200711, resuspended in DMSO; YM26734, Santa Cruz Biotechnology, item # sc-204410, resuspended in DMSO; Isoquercetin, Cayman Chemical, item #24926, resuspended in DMSO; ISA-2011B, Medchem Express, cat # HY-16937, resuspended in DMSO; Benzamil, TOCRIS, Cat #3380/10, resuspended in water; Cell permeable NFAT inhibitor (11R-VIVIT), Tocris, Cat #5710, resuspended in PBS. ELISAs were performed using Duoset reagents from R&D systems, catalogue # DY210 (human TNF), # DY206 (human IL6), and #DY201 (human IL-1β).
Where direct chemical modulators of the proposed inflammatory modulators were available, we tested their effect on endothelial permeability using ECIS and/or on the leukocyte inflammatory response using the whole blood assay described above.
Agents used were SJ000291942 (Sigma #SML2087-5MG) and saxagliptin (Santa Cruz Biotechnology #sc-473161), both resuspended in DMSO.

IL6 = experiment: Whole blood cytokine release, IL6 (ELISA); type: cell-based; conditions: diluted human whole blood, LPS 1.5 ng/ml, 18 h, mean ± 95% confidence intervals; for inhibition at 25 µM / inhibition at 50 µM / inhibition at 100 µM: read-out: % Inhibition of cytokine release, relative to vehicle: IL6
Protocol: as §1, §2

IL1β = experiment: Whole blood cytokine release, IL-1β (ELISA); type: cell-based; conditions: diluted human whole blood, LPS 1.5 ng/ml, 18 h, mean ± 95% confidence intervals; for inhibition at 25 µM / inhibition at 50 µM / inhibition at 100 µM: read-out: % Inhibition of cytokine release, relative to vehicle: IL1β
Protocol: as §1, §2

TNF = experiment: Whole blood cytokine release, TNF (ELISA); type: cell-based; conditions: diluted human whole blood, LPS 1.5 ng/ml, 18 h, mean ± 95% confidence intervals; for inhibition at 25 µM / inhibition at 50 µM / inhibition at 100 µM: read-out: % Inhibition of cytokine release, relative to vehicle: TNF
Protocol: as §1, §2

[2] = biological target: NFATC2 (Nuclear Factor Of Activated T Cells 2) (human)

**Q.** Which “Proinflammatory cytokine secretion from whole blood (in words)” value ([1]; whole blood with and without LPS, BMP receptor signaling agonist, FIG. 81C) does the source give for `CCc1ccc(OCC(=O)Nc2ccc(F)c([N+](=O)[O-])c2)cc1` [SJ000291942] here?
**A.** enhances proinflammatory cytokine secretion

**Q.** For 11R-VIVIT, which “% Inhibition of cytokine release, relative to vehicle: IL6” value (shortened to “% Inhibition … relative to vehicle: IL6”) (IL6; 12.5 μM) is on record?
**A.** −10% ± 16.7%

**Q.** And the “% Inhibition … relative to vehicle: IL6” value (IL6; 25 μM)?
**A.** 2% ± 32.9%

**Q.** What about the “% Inhibition … relative to vehicle: IL6” value (IL6; 50 μM) of the same compound?
**A.** 87% ± 17.9%

**Q.** What about the “% Inhibition of cytokine release, relative to vehicle: IL1β” value (shortened to “% Inhibition … relative to vehicle: IL1β”) (IL1β; 12.5 μM) of the same compound?
**A.** 32% ± 13.0%

**Q.** And the “% Inhibition … relative to vehicle: IL1β” value (IL1β; 25 μM)?
**A.** 48% ± 27.4%

**Q.** What about the “% Inhibition … relative to vehicle: IL1β” value (IL1β; 50 μM) of the same compound?
**A.** 51% ± 26.3%

**Q.** And the “% Inhibition of cytokine release, relative to vehicle: TNF” value (“% Inhibition … relative to vehicle: TNF” below) (TNF; 12.5 μM)?
**A.** 23% ± 12.2%

**Q.** And the “% Inhibition … relative to vehicle: TNF” value (TNF; 25 μM)?
**A.** 40% ± 7.1%

**Q.** What about the “% Inhibition … relative to vehicle: TNF” value (TNF; 50 μM) of the same compound?
**A.** 79% ± 14.3%

**Q.** `NC(=NCc1ccccc1)NC(=O)c1nc(Cl)c(N)nc1N` [Benzamil] was tested. Which inhibition at 25 µM (IL6; 25 μM) did it give?
**A.** 11%

**Q.** And the inhibition at 50 µM (IL6; 50 μM)?
**A.** 22%

**Q.** And the inhibition at 100 µM (IL6; 100 μM)?
**A.** 65%

**Q.** What about the inhibition at 25 µM (IL1β; 25 μM) of the same compound?
**A.** 32%

**Q.** What about the inhibition at 50 µM (IL1β; 50 μM) of the same compound?
**A.** 48%

**Q.** What about the inhibition at 100 µM (IL1β; 100 μM) of the same compound?
**A.** 60%

**Q.** What about the inhibition at 25 µM (TNF; 25 μM) of the same compound?
**A.** 4%

**Q.** What about the inhibition at 50 µM (TNF; 50 μM) of the same compound?
**A.** 23%

**Q.** What about the inhibition at 100 µM (TNF; 100 μM) of the same compound?
**A.** 69%

**Q.** How did the “% Inhibition … relative to vehicle: IL6” value (IL6; 12.5 μM) turn out when `CCCCCCCC/C=C\CCCCCCCCOCCOP(=O)([O-])OCC[N+](C)(C)C` [OEPC, oleyloxyethyl phosphorylcholine] was run?
**A.** −3% ± 17.6%

**Q.** And the “% Inhibition … relative to vehicle: IL6” value (IL6; 25 μM)?
**A.** 39% ± 14.1%

**Q.** What about the “% Inhibition … relative to vehicle: IL6” value (IL6; 50 μM) of the same compound?
**A.** 65% ± 11.7%

**Q.** And the “% Inhibition … relative to vehicle: IL6” value (IL6; 100 μM)?
**A.** 83% ± 6.2%

**Q.** And the “% Inhibition … relative to vehicle: TNF” value (TNF; 12.5 μM)?
**A.** −9% ± 17.3%

**Q.** What about the “% Inhibition … relative to vehicle: TNF” value (TNF; 25 μM) of the same compound?
**A.** 6% ± 17.4%

**Q.** And the “% Inhibition … relative to vehicle: TNF” value (TNF; 50 μM)?
**A.** 37% ± 14.7%

**Q.** And the “% Inhibition … relative to vehicle: TNF” value (TNF; 100 μM)?
**A.** 57% ± 6.5%

**Q.** How did the “Effect on (proinflammatory) cytokine release in whole blood assay (in words)” value (“Effect” for short) [1] turn out when `CCCCCCCCCCCCCCCCCCc1ccc(C(=O)/C=C/C(=O)O)cc1` [OBAA] was run?
**A.** dose-dependent inhibition

**Q.** Which “% Inhibition … relative to vehicle: IL6” value (IL6; 12.5 μM) does the source give for `CCCCCCCCCCCC(=O)c1c(O)c(C(=O)CCCCCCCCCCC)c(O)c(C2CC(c3ccc(O)cc3)Oc3cc(O)ccc32)c1O` (stereo not shown) [YM26734] here?
**A.** 35% ± 18.8%

**Q.** What about the “% Inhibition … relative to vehicle: IL6” value (IL6; 25 μM) of the same compound?
**A.** 51% ± 29.5%

**Q.** And the “% Inhibition … relative to vehicle: IL6” value (IL6; 50 μM)?
**A.** 67% ± 21.7%

**Q.** And the “% Inhibition … relative to vehicle: IL6” value (IL6; 100 μM)?
**A.** 67% ± 15.1%

**Q.** What about the “% Inhibition … relative to vehicle: IL1β” value (IL1β; 12.5 μM) of the same compound?
**A.** 51% ± 12.0%

**Q.** And the “% Inhibition … relative to vehicle: IL1β” value (IL1β; 25 μM)?
**A.** 65% ± 3.5%

**Q.** And the “% Inhibition … relative to vehicle: IL1β” value (IL1β; 50 μM)?
**A.** 73% ± 11.3%

**Q.** What about the “% Inhibition … relative to vehicle: IL1β” value (IL1β; 100 μM) of the same compound?
**A.** 78% ± 8.9%

**Q.** What about the “Effect” value [1] of the same compound?
**A.** dose-dependent inhibition

**Q.** And the “% Inhibition … relative to vehicle: TNF” value (TNF; 12.5 μM)?
**A.** 41% ± 17.6%

**Q.** What about the “% Inhibition … relative to vehicle: TNF” value (TNF; 25 μM) of the same compound?
**A.** 55% ± 22.6%

**Q.** What about the “% Inhibition … relative to vehicle: TNF” value (TNF; 50 μM) of the same compound?
**A.** 64% ± 26.1%

**Q.** And the “% Inhibition … relative to vehicle: TNF” value (TNF; 100 μM)?
**A.** 52% ± 22.7%

**Q.** With `O=c1c(O[C@@H]2O[C@H](CO)[C@@H](O)[C@H](O)[C@H]2O)c(-c2ccc(O)c(O)c2)oc2cc(O)cc(O)c12` [Isoquertecin, Isoquercetin] as the compound, how does the inhibition at 25 µM (IL6; 25 μM) read?
**A.** 26%

**Q.** What about the inhibition at 50 µM (IL6; 50 μM) of the same compound?
**A.** 31%

**Q.** And the inhibition at 100 µM (IL6; 100 μM)?
**A.** 26%

**Q.** What about the inhibition at 25 µM (IL1β; 25 μM) of the same compound?
**A.** 15%

**Q.** And the inhibition at 50 µM (IL1β; 50 μM)?
**A.** 25%

**Q.** What about the inhibition at 100 µM (IL1β; 100 μM) of the same compound?
**A.** 19%

**Q.** And the inhibition at 25 µM (TNF; 25 μM)?
**A.** 9%

**Q.** And the inhibition at 50 µM (TNF; 50 μM)?
**A.** 23%

**Q.** What about the inhibition at 100 µM (TNF; 100 μM) of the same compound?
**A.** 29%

**Q.** Which % Inhibition of cytokine release, relative to vehicle (TNF; LPS-stimulated human whole blood, 50 µM 11R-VIVIT) [2] does the source give for “Cell permeable NFAT inhibitor (11R-VIVIT) (peptide)” here?
**A.** 79%

**Q.** Which “% Inhibition … relative to vehicle: IL6” value (IL6; 1 μM) does the source give for `CN1CC(=O)N2[C@H](c3c[nH]c4ccc(Cl)cc34)c3cc4c(cc3C[C@H]2C1=O)OCO4` [ISA-2011B] here?
**A.** −7% ± 7.7%

**Q.** And the “% Inhibition … relative to vehicle: IL6” value (IL6; 10 μM)?
**A.** 6% ± 19.7%

**Q.** What about the “% Inhibition … relative to vehicle: IL6” value (IL6; 100 μM) of the same compound?
**A.** 24% ± 19.5%

**Q.** What about the “% Inhibition … relative to vehicle: IL1β” value (IL1β; 1 μM) of the same compound?
**A.** 17% ± 9%

**Q.** And the “% Inhibition … relative to vehicle: IL1β” value (IL1β; 10 μM)?
**A.** 23% ± 6%

**Q.** And the “% Inhibition … relative to vehicle: IL1β” value (IL1β; 100 μM)?
**A.** 86% ± 2.9%

**Q.** What about the “Effect” value [1] of the same compound?
**A.** inhibits cytokine release

**Q.** What about the “% Inhibition … relative to vehicle: TNF” value (TNF; 1 μM) of the same compound?
**A.** 1% ± 11.2%

**Q.** And the “% Inhibition … relative to vehicle: TNF” value (TNF; 10 μM)?
**A.** 17% ± 7.6%

**Q.** And the “% Inhibition … relative to vehicle: TNF” value (TNF; 100 μM)?
**A.** 55% ± 8.8%
